Data as given in US20090298799A1, “Methods of Treating Osteoporosis and Secondary Hyperparathyroidism Using 20-Methyl, Gemini Vitamin D3 Compounds” (BioXell S.p.A., priority 2005, published 2009).

Key:
[1] = Determination of maximum tolerated dose (MTD) without hypercalcemia; set-up: species or system mice; settings: female, C57BL/6, mouse, in vivo, po; p.o. daily for four days; highest dose without hypercalcemia (serum calcium>10.7 mg/dl)
Protocol: The maximum tolerated dose of the vitamin D3 compounds of the invention were determined in eight week-old female C57BL/6 mice (3 mice/group) dosed orally (0.1 ml/mouse) with various concentrations of Vitamin D3 analogs daily for four days. Analogs were formulated in miglyol for a final concentration of 10, 30, 100 and 300 μg/kg when given at 0.1 ml/mouse p.o. daily. Blood for serum calcium assay was drawn by tail bleed on day five, the final day of the study. Serum calcium levels were determined using a colormetric assay (Sigma Diagnostics, procedure no. 597). The highest dose of analog tolerated without inducing hypercalcemia (serum calcium>10.7 mg/dl) was taken as the maximum tolerated does (MTD).

OVX rats = test: Osteoporosis, early curative treatment in 3 month old OVX rats; settings: for Tibia (μCT) increased over OVX controls / vertebrae (L5) increase over OVX control rats: 5/7 days for 3 weeks; for efficacy compared with calcitriol: 3 month old OVX rats
Protocol: Three-month old Sprague Dawley female rats were purchased from CERJ or Charles River, France. Rats underwent bilateral ovariectomy (OVX) or sham-operation (Sham) under anesthesia with intraperitoneal ketamine hydrochloride (50 mg/kg BW). The success of ovariectomy was evidenced at necropsy by weighing the uterus and visualizing the absence of ovarian tissue.
Throughout the whole experiment, rats were housed at 22±2° C. with a 12 h:12 h light-dark cycle. The animals were pair-fed a standard diet (Safe, 0.6% P, 0.8% Ca) and received Eau de Volvic ad libitum.
The treatment started 3 weeks post-ovariectomy. Compounds were firstly dissolved in ethanol (1 mg/ml). The other dilutions were done in Miglyol 812N. Compounds or vehicle (sham, OVX control rats) were given by daily oral gavage (5 ml/kg), 5/7 days for 3 weeks. […] Before the beginning of treatment, groups of sham and OVX rats were sacrificed to serve as basal controls. Ten and three days before sacrifice, rats were given subcutaneous injections of calcein (10 ml/kg, Sigma) to determine dynamic changes in bone tissue. The day before sacrifice, the rats were fasted and housed in metabolic cages to collect overnight urines.
At necropsy, right long bones were removed and fixed in 70% ethanol for further μCT (tibia and femur) and histomorphometry (tibia) analysis. The whole left legs were collected for pQCT analysis. The fourth and fifth lumbar vertebrae were dissected for DXA analysis. Excised tibias were scanned by a μCT machine (Scanco Medical) with software version 3.1 for a 2D-evaluation. The scans started at a distance of 1 mm of the reference line in the proximal tibia metaphysis. Five 0.5 mm-spaced slices were analyzed. The slice thickness was 20-30 μm. Bone volume (BV/TV) and trabeculae number (TbN) and thickness (TbTh) were assessed. Excised tibias were scanned by a pQCT machine (Stratec XCT Research SA+) with software version 5.4 to assess trabecular and cortical Bone Mineral Density (BMD) of proximal tibia metaphysis. For analysis of trabecular bone, the distance between the reference line and the first measurement line was 3 mm. Three other lines separated by 1 mm were analyzed. The cortical BMD was analyzed at 20 mm from the reference line. The voxel size was 0.10 mm. The peel mode used was 20/50. The BMD of excised fourth (L4) and fifth (L5) lumbar vertebrae were scanned by a DXA machine (Hologic QDR 4500) with software optimized for small animal studies. The regional high-resolution software selected a thin X-ray aperture. The large region was 68-71 and the narrow one was 35-21 to assess the body of the vertebrae of L4 and L5.
Left tibia from each rat was removed and dissected free of adjacent tissues. The bones were fixed in 70% ethanol, dehydrated in graded concentrations of ethanol, defatted in xylene, then embedded without decalcification in methyl methacrylate. Five μm-thick sections were made and stained with toluidine blue and cyanin solochrome and used for structural and cellular parameters evaluation. Ten μm-thick sections remained unstained for florescence microscopy observations. Structural and dynamic parameters were measured in the secondary spongiosa of the proximal tibial metaphysis situated about 1 mm distal from the growth plate-epiphyseal junction. Structural parameters, i.e. trabecular bone volume BV/TV (%), trabecular thickness (μm), connections and number, as well as cellular parameters (osteoblast, osteoid surfaces and osteoclast number), and dynamic parameters (mineralizing surface, mineral apposition rate, bone formation rate) were evaluated.
Osteocalcin (IRMA kit, Immutopics), DPyr (Metra DPD EIA kit), CTx (Ratlaps ELISA, Nordic, Bioscience Diagnostics) Ca, P, creatinin (Cobas Mira analyser) and rat PTH (Immutopics) were assessed in serum or urine material according to the manufacturer's instructions.

nephrectomized rats = test: Secondary hyperparathyroidism, 5/6 nephrectomized (uremic) rats; assay type: in vivo, Sprague Dawley rats; settings: for efficacy in PTH suppression and bone porosity / results compared to Zemplar in PTH suppression, CaxP, bone porosity and aortic calcification / safety profile compared to Zemplar: rat, in vivo; for bone protection / efficacy: rats with moderate renal failure
Protocol: Three month-old Sprague Dawley male rats (220-250 g BW) were purchased from CERJ, France, Rats were ⅚ nephrectomized (right kidney and ⅔ left kidney removed by surgery) or sham-operated (controls) by the supplier according to Prostrakan'procedures. The success of nephrectomy was evidenced at necropsy by visualizing the kidney tissue and measuring serum creatinin and urea. There were 10-12 rats in each group. […] Twenty days after operation, phosphate (Na2HPO4) was added to Eau de Volvic (6 g/l). Experimental procedures were approved by the Animal Ethics Committee of Prostrakan and by DDSV of Seine St Denis, France. The treatment started 82 days post-nephrectomy. Compounds were firstly dissolved in ethanol (1 mg/ml). The other dilutions were done in Miglyol 812N. […] Before the beginning of treatment, groups of control and nephrectomized rats were sacrificed to served as basal controls.
The whole left legs were collected for pQCT analysis. […] Five 0.5 mm-spaced slices were analyzed. The slide thickness was 20-30 μm. Bone volume (BV/TV) and trabecular number (TbN) and thickness (TbTh) were assessed. […] Three other lines separated by 1 mm were analyzed. […] The voxel size was 0.10 mm. The peel mode used was 20/50.
Ten μm-thick sections remained unstained for fluorescence microscopy observations.
To assess the calcification, aortas (6 cm-segment starting at arch), hearts and remaining kidney tissues were removed and fixed for histology analysis. Aortas segments were fixed in 3.7% formaldehyde and embedded in paraffin. Five μm cross sections were made and stained with a Von Kossa method for the calcification evaluation. The following grading of the calcification was used: moderate when less 50% of the aortic perimeter was calcified; severe when 100% of the aortic perimeter was calcified.
Data were expressed as mean±sem. […] The ANOVA test was used for all groups.

renin = test: Renin inhibition in vitro
IFN-γ production = IFN-γ production by allogeneic T cell activation in the mixed leukocyte response (MLR); assay type: cell-based; settings: 120 h; allogeneic PBMC from 2 donors, 5 days, ELISA
Protocol: Immature dendritic cells (DC) were prepared as described in Romani, N. et al., J. Immunol. Meth. 196.137. IFN-γ production by allogeneic T cell activation in the mixed leukocyte response (MLR) was determined as described in Penna, G., et al., J. Immunol., 164: 2405-2411 (2000).
Briefly, peripheral blood mononuclear cells (PBMC) were separated from buffy coats by Ficoll gradient and the same number (3×105) of allogeneic PBMC from 2 different donors were co-cultured in 96-well flat-bottom plates. After 5 days, IFN-γ production in the MLR assay was measured by ELISA and the results expressed as amount (nM) of test compound required to induce 50% inhibition of IFN-γ production (IC50) (Table 1).

SMILES | MTD at 4 days [1] | efficacy compared with calcitriol (OVX rats) | peritrabecular fibrosis (tibia) (nephrectomized rats; 0.1 μg/kg) | efficacy in PTH suppression and bone porosity (nephrectomized rats) | results compared to Zemplar in PTH suppression, CaxP, bone porosity and aortic calcification (nephrectomized rats) | safety profile compared to Zemplar (nephrectomized rats) | bone protection (nephrectomized rats) | efficacy (nephrectomized rats) | inhibition of renin in vitro compared with calcitriol (renin) | results compared to Zemplar in the renin inhibition in vitro experiments (renin) | further results
C=C1/C(=C\C=C2/CCC[C@@]3(C)C2CCC3[C@](C)(CC#CC(O)(C(F)(F)F)C(F)(F)F)CCCC(C)(C)O)CC(O)C[C@@H]1O (stereo partly drawn) [Compound 1, (20S)-1,25-Dihydroxy-20-(5,5,5-trifluoro-4-hydroxy-4-trifluoromethyl-pent-2-ynyl)-cholecalciferol] | 0.3 µg/kg | greater efficacy than calcitriol |  |  |  |  |  |  |  |  | Tibia (μCT) increased over OVX controls (OVX rats; 0.3 μg/kg oral): 90%; vertebrae (L5) increase over OVX control rats (OVX rats; 0.3 μg/kg oral): 8%; efficacy vs. calcitrol on travecular bone volume (OVX rats; 0.3 μg/kg, FIG. 4): higher; Tibia (μCT) increased over OVX controls (OVX rats; 1 μg/kg oral): 114%; vertebrae (L5) increase over OVX control rats (OVX rats; 1 μg/kg oral): 12%
C=C1/C(=C\C=C2/CCC[C@@]3(C)C2CCC3[C@](C)(CC#CC(O)(C(F)(F)F)C(F)(F)F)CCCC(C)(C)O)CC(O)C[C@@H]1F (stereo partly drawn) [Compound 6, (20S)-1α-Fluoro-25-hydroxy-20-(5,5,5-trifluoro-4-hydroxy-4-trifluoromethyl-pent-2-ynyl)-cholecalciferol] | 100 µg/kg |  |  |  |  |  |  |  |  |  | 
C=C1/C(=C\C=C2/CCC[C@@]3(C)C2CCC3[C@@](C)(C/C=C/C(O)(C(F)(F)F)C(F)(F)F)CCCC(C)(C)O)CC(O)C[C@@H]1O (stereo partly drawn) [Compound 5, (20R)-1,25-Dihydroxy-20-[(2E)-5,5,5-trifluoro-4-hydroxy-4-trifluoromethyl-pent-2-enyl]-cholecalciferol] | 0.1 µg/kg |  |  |  |  |  |  |  |  |  | 
C=C1/C(=C\C=C2/CCC[C@@]3(C)C2CCC3[C@](C)(C/C=C\C(O)(C(F)(F)F)C(F)(F)F)CCCC(C)(C)O)CC(O)C[C@@H]1O (stereo partly drawn) [Compound 2, (20S)-1,25-Dihydroxy-20-((2Z)-5,5,5-trifluoro-4-hydroxy-4-trifluoromethyl-pent-2-enyl)cholecalciferol] | 0.3 µg/kg |  | one of ten rats | demonstrated efficacy | greater or equal positive results compared to Zemplar | equal or more beneficial results | provided bone protection on the tibia and vertebrae | good efficacy | stronger inhibitition of renin in vitro over calcitriol | greater or equal positive results compared to Zemplar | osteoid thickening (tibia) (nephrectomized rats; 1 μg/kg): normal levels; rats with mild porous levels of femur cortical porosity (nephrectomized rats; 1 μg/kg): four of ten rats; femur cortical porosity (nephrectomized rats; 3 μg/kg): nine rats demonstrated normal levels; osteoid thickening (tibia) (nephrectomized rats; 3 μg/kg): normal levels; peritrabecular fibrosis (tibia) (nephrectomized rats; 3 μg/kg): normal levels
C=C1/C(=C\C=C2/CCC[C@@]3(C)C2CCC3[C@@](C)(CC#CC(O)(C(F)(F)F)C(F)(F)F)CCCC(C)(C)O)CC(O)C[C@@H]1O (stereo partly drawn) [Compound 4, (20R)-1,25-Dihydroxy-20-(5,5,5-trifluoro-4-hydroxy-4-trifluoromethyl-pent-2-ynyl)-cholecalciferol] |  |  | normal levels | demonstrated efficacy | greater or equal positive results compared to Zemplar | equal or more beneficial results | provided bone protection on the tibia and vertebrae | good efficacy | stronger inhibitition of renin in vitro over calcitriol | greater or equal positive results compared to Zemplar | osteoid thickening (tibia) (nephrectomized rats; 0.03 μg): normal levels; peritrabecular fibrosis (tibia) (nephrectomized rats; 0.03 μg/kg): one of nine rats; rats with mild porous levels of femur cortical porosity (nephrectomized rats; 0.03 μg/kg): four of nine rats; osteoid thickening (tibia) (nephrectomized rats; 0.1 μg/kg): one of nine rats; rats with mild porous levels of femur cortical porosity (nephrectomized rats; 0.1 μg/kg): one of nine rats
C=C1/C(=C\C=C2/CCC[C@@]3(C)C2CCC3[C@](C)(C/C=C/C(O)(C(F)(F)F)C(F)(F)F)CCCC(C)(C)O)CC(O)C[C@@H]1O (stereo partly drawn) [Compound 3, (20S)-1,25-Dihydroxy-20-[(2E)-5,5,5-trifluoro-4-hydroxy-4-trifluoromethyl-pent-2-enyl]-cholecalciferol] |  | greater efficacy than calcitriol |  |  |  |  |  |  |  |  | IC50 (IFN-γ production): 0.044 nM
